Experimental data taken from patent US20160252494A1, “MICROSCALE MICROPATTERNED ENGINEERED IN VITRO TISSUE” (priority 2005, published 2016).
Like-named read-outs stand apart in the source and are kept apart here.

Tests used:
CYP2B [1] = assay: CYP2B protein induction in static and perfused bioreactor hepatocyte cultures
CYP3A [2] = assay: CYP3A protein induction in static and perfused bioreactor hepatocyte cultures
CYP2A6 [3] = test system: CYP2A6
Protocol: The reactions were stopped by collection of the incubation medium. Then, potential metabolite conjugates formed via Phase II activity were hydrolyzed by incubation of supernatants with β-glucuronidase/arylsulfatase (Roche, IN) for 2 hours at 37° C. Samples were diluted 1:1 in quenching solution and fluorescent metabolite formation was quantified by means of a fluorescence micro-plate reader (Molecular Devices, Sunnyvale, Calif.) as described elsewhere in detail. Production of 7-HC from CM is a reaction (CM 7-Hydroxylation) mediated by CYP2A6 in humans, production of 7-HFC from BFC or MFC (dealkylation) is mediated by several different CYP450s, and production of RR from ER (ER Odealkylation) is mediated by CYP1A2.
Cytochrome-P450 Induction. Stock solutions of prototypic CYP450 inducers (Sigma) were made in dimethylsulfoxide (DMSO), except for Phenobarbital, which was dissolved in water. Cultures were treated with inducers (Rifampin 25 μM, β-Naphthoflavone 30 μM or 50 μM, Phenobarbital 1 mM, Omeprazole 50 μM) dissolved in hepatocyte culture medium for 4 days. Control cultures were treated with vehicle (DMSO) alone for calculations of fold induction. To enable comparisons across inducers, DMSO levels were kept constant at 0.06% (v/v) for all conditions.

CYP1A2 [4] = details: human and rat, 4 days, 50 µM
[5] = test system: micropatterned human co-cultures (primary human hepatocytes with 3T3-J2 fibroblasts); details: MTT
Protocol: Cultures were incubated with various concentrations of compounds dissolved in culture medium for 24 hours (acute toxicity) or extended time periods (chronic toxicity, 1-4 days). Cell viability was subsequently measured via the MTT (3-(4,5-dimethylthiazol-2-yl)-2,5-diphenyl tetrazolium bromide; Sigma) assay, which involves cleavage of the tetrazolium ring by mitochondrial dehydrogenase enzymes to form a purple precipitate. MTT was added to cells in DMEM without phenol red at a concentration of 0.5 mg/mL. After an incubation time of 1 hour, the purple precipitate was dissolved in a 1:1 solution of DMSO and Isopropanol. The absorbance of the solution was measured at 570 nm (SpectraMax spectrophotometer, Molecular Devices, Sunnyvale, Calif.).
Use of optimized micropatterned human co-cultures to evaluate metabolism and toxicity of xenobiotics. […] Acute toxicity tests involved incubating eight day old co-cultures for 24 hrs with various drugs, some with known clinical hepatotoxic potential. After the incubation time period, the cell culture medium was aspirated and a viability assay was conducted (MTT assay—commercially available). […]
To assess utility of the microscale human liver tissue for toxicity assays, the acute and chronic toxicity of model hepatotoxins were quantified. […]

CYP1A2 [6] = assay: Induction of CYP1A2 activity in microscale liver tissues (ethoxyresorufin dealkylation); details: incubation 1 or 3 days, varying dose
CYP2B [7] = test system: CYP2B
CYP2A6 [8] = target: T1, CYP2A6 (Homo sapiens, UniProt P11509)
T1 sequence (P11509 1-494): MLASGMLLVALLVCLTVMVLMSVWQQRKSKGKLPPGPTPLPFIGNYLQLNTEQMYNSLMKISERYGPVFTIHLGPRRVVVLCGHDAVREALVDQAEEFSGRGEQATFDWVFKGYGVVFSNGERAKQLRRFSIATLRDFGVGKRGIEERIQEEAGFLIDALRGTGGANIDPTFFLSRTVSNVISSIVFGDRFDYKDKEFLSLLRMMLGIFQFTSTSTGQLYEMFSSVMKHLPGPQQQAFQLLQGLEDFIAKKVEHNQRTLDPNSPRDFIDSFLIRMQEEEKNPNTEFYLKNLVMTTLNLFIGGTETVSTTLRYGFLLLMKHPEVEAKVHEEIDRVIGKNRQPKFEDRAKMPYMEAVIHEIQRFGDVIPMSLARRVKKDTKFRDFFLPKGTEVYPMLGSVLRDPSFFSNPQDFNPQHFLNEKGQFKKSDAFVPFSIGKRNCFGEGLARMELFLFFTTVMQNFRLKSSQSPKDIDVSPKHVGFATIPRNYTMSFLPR
Protocol: Mitochondrial activity was measured using the MTT assay. All data was normalized to vehicle-only controls. […] ER, Ethoxy-resorufin. […] Error bars represent standard error of the mean (n=3).
The reactions were stopped by collection of the incubation medium. Then, potential metabolite conjugates formed via Phase II activity were hydrolyzed by incubation of supernatants with β-glucuronidase/arylsulfatase (Roche, IN) for 2 hours at 37° C. Samples were diluted 1:1 in quenching solution and fluorescent metabolite formation was quantified by means of a fluorescence micro-plate reader (Molecular Devices, Sunnyvale, Calif.) as described elsewhere in detail.

CYP3A [9] = details: hepatocytes
[10] = static cultures, 48 hour induction
[11] = treated 4 days with prototypic inducers

Q: Which results are given for `CCC1(c2ccccc2)C(=O)NC(=O)NC1=O` [Phenobarbital]?
A: CYP2B expression (CYP2B [1]; perfused cultures, 36 hours): Dramatic expression of both CYPs over controls; CYP2B expression (CYP2B [1]; [10]): moderate; CYP3A expression (CYP3A [2]; perfused cultures, 36 hours): Dramatic expression of both CYPs over controls; CYP3A expression (CYP3A [2]; [10]): low; CYP2A6 induction (CYP2A6 [3]; [11]): induction was observed

Q: How did the “Effectiveness of CYP1A2 induction in human over rat models” value (CYP1A2 [4]) turn out when `COc1ccc2[nH]c([S+]([O-])Cc3ncc(C)c(OC)c3C)nc2c1` (stereo not shown) [Omeprazole] was run?
A: The value was 8 fold.

Q: What about the CYP2A6 induction (CYP2A6 [3]) of the same molecule?
A: Its CYP2A6 induction is “weaker effects”.

Q: With `[Cl][Cd][Cl]` [Cadmium, Cadmium chloride] as the molecule, how does the “Relative acute toxicity in vitro” value ([5]; 24 hrs incubation) read?
A: Its value is “severely toxic”.

Q: And the “Shape of dose-dependent toxicity profile” value ([5]; acute exposure 24 hours)?
A: Its value is “relatively linear toxic profile”.

Q: How did the CYP2A6 induction (CYP2A6 [3]) turn out when `CO[C@H]1/C=C/O[C@@]2(C)Oc3c(C)c(O)c4c(O)c(c(/C=N/N5CCN(C)CC5)c(O)c4c3C2=O)NC(=O)/C(C)=C\C=C\[C@H](C)[C@H](O)[C@@H](C)[C@@H](O)[C@@H](C)[C@H](OC(C)=O)[C@@H]1C` [Rifampin] was run?
A: Its CYP2A6 induction is “induction was observed”.

Q: `O=c1cc(-c2ccccc2)oc2ccc3ccccc3c12` [β-Naphthoflavone] was tested. Which “Induction of CYP1A2 activity” value (CYP1A2 [6]) did it give?
A: The value was “dose and time-dependent manner”.

Q: What about the CYP2A6 induction (CYP2A6 [3]; [11]) of the same molecule?
A: Its CYP2A6 induction is “weaker effects”.

Q: With `C[C@@H]1C[C@H]2[C@@H]3CCC4=CC(=O)C=C[C@]4(C)[C@@]3(F)[C@@H](O)C[C@]2(C)[C@@]1(O)C(=O)CO` [DEX, dexamethasone] as the molecule, how does the CYP2B induction (CYP2B [7]) read?
A: The CYP2B induction was “high levels”.

Q: Which “Inhibition of CYP2A6 activity” value (CYP2A6 [8]) does the source give for `COc1c2occc2cc2ccc(=O)oc12` [methoxsalen, Methoxsalen] here?
A: The value was “dose-dependent inhibition”.

Q: What does the source list for “EGF: epidermal growth factor, added to perfusion media with PB or DEX”?
A: Effect on DEX-induced CYP2B (CYP2B [7]): significant shift in CYP2B spatial distribution was noted from inlet regions to the outlet; Effect on DEX-induced CYP3A induction (CYP3A [9]): remained uniform
